Laboratory results taken from PMC6271077, “Synthesis, Anticancer and Antibacterial Activity of Salinomycin N-Benzyl Amides” (Molecules, 2014).
Converted amounts (≈) assume the structure as drawn. Like-named read-outs stand apart in the source and are kept apart here.

What was measured:
HL-60 = assay: Antiproliferative MTT assay, HL-60; format: cell-based, human; conditions: for IC50: Homo sapiens, read-out: IC50 HL-60; for SI HL-60: SI = IC50 BALB/3T3 / IC50 HL-60
Text: (§1) Four human cancer cell lines and one normal cell line were used to evaluate anticancer activity of SAL and its N-benzyl amides: human acute promyelocytic leukemia (HL-60) and its vincristine resistant subline (HL-60/vinc), human colon adenocarcinoma cell lines sensitive (LoVo) and resistant to doxorubicin (LoVo/dx) as well as also normal murine embryonic fibroblast cell line (BALB/3T3). The BALB/3T3 cell line was purchased from the American Type Culture Collection (ATCC Rockville, MD, USA), HL-60 cell line from European Type Culture Collection by courtesy of Professor Spik and Dr Mazurier (Laboratory of Biological Chemistry USTL, Lille, France) and HL-60/vinc, LoVo and LoVo/dx by courtesy of Prof. E. Borowski (Technical University of Gdańsk, Gdańsk, Poland). All the cell lines are maintained in the Institute of Immunology and Experimental Therapy (IIET), Wrocław, Poland.
(§2) Human leukemia cells were cultured in ISCOVE medium (IIET, Wroclaw, Polond) containing 10% fetal bovine serum and 2 mM L-glutamine (Sigma Aldrich) and 1 µg/100 mL […] for HL-60/vinc (Sigma Aldrich). Human colon adenocarcinoma cell lines were cultured in mixture of OptiMEM and RPMI 1640 (1:1) medium (IIET) supplemented with 5% fetal bovine serum (Thermo Fisher Scientific, Waltham, MA, USA), 2 mM L-glutamine, 1 mM sodium pyruvate (Sigma Aldrich) and 10 µg/100 mL doxorubicin for LoVo/dx (Sigma Aldrich). Murine embryonic fibroblast cells were cultured in Dulbecco medium (Gibco, Darmstadt, Germany) supplemented with 10% fetal bovine serum (Thermo Fisher Scientific) and 2 mM L-glutamine (Sigma Aldrich). All culture media contained antibiotics: 100 U/mL penicillin (Sigma Aldrich) and 100 µg/mL streptomycin (Polfa-Tarchomin, City, Poland). All cell lines were cultured during entire experiment in humid atmosphere at 37 °C and 5% CO2.
(§3) Twenty four hours before adding the tested compounds all cell lines were seeded in 96-well plates (Sarstedt, Nümbrecht, Germany) in appropriate media with 10^4 cells per well. All cell lines were exposed to each tested agent at four different concentrations from the range 100 to 0.1 µg/mL for 72 h. The cells were also exposed to the reference drugs: cisplatin (Accord, London, UK) and doxorubicin hydrochloride (Fluka, St. Louis, MO, USA). Additionally, all cell lines were exposed to DMSO (the solvent used for tested compounds, Sigma Aldrich) at the concentrations corresponding to those in the tested agent dilutions. For adherent cells sulphorodamine B assay was performed and MTT assay for leukemia cells.
(§4) Proliferation inhibition of leukemia cells by tested compounds was measured by means of MTT assay. Thus, 20 µL of 3-(4,5-dimethylthiazol-2-yl)-2,5-diphenyl tetrazolium bromide solution (Sigma Aldrich) were added to each well and plates were left in cell incubator for 4 h to allow the cells to metabolize yellow MTT to blue formazan. Then, the lysing mixture consisting of 225 mL dimethylformamide, 67.5 g sodium dodecyl sulfate (both from Sigma Aldrich) and 275 mL of distilled water was added in 80 µL volume per well. Plates were incubated for 24 h for the formazan crystals to be released from cells, dissolved and then absorbance of each well was read at Synergy H4 photometer (BioTek Instruments) at 570 nm wavelength.
(§5) Results are presented as mean IC50 (concentration of the tested compound that inhibits cell proliferation by 50%) ± standard deviation. IC50 values were calculated in Cheburator 1.0.2, Dmitry Nevozhay software for each experiment. Compounds at each concentration were tested in triplicates in single experiment and each experiment was repeated at least three times independently. The IR was defined as the ratio of IC50 for a given compound calculated for resistant cell line to that measured for its parental drug sensitive cell line (Table 4).

[1] = test system: standard and "wild" strains of M. tuberculosis; assay: Tuberculostatic activity, all M. tuberculosis strains (overall); format: cell-based; conditions: Mycobacterium tuberculosis, H37RV, read-out: MIC (over M. tuberculosis strains)
[2] = test system: M. tuberculosis isoniazid-sensitive strain (spec. 192); assay: Tuberculostatic activity, test-tube dilution; format: cell-based; conditions: Mycobacterium tuberculosis, read-out: MIC M. tuberculosis Isoniazid-Sensitive Strain
[3] = test system: M. tuberculosis standard H37Rv strain; assay: Tuberculostatic activity, test-tube dilution; format: cell-based; conditions: Mycobacterium tuberculosis, read-out: MIC M. tuberculosis Standard H37Rv Strain
HL-60/vinc = assay: Antiproliferative MTT assay, HL-60/vinc; format: cell-based, human; conditions: for IC50: Homo sapiens, HL60/vinc, 72 h, read-out: IC50 HL-60/vinc; for IR HL-60/vinc: IR = IC50 HL-60/vinc / IC50 HL-60; for SI HL-60/vinc: SI = IC50 BALB/3T3 / IC50 HL-60/vinc
Text: as §1, §2, §3, §4, §5

LoVo = assay: Antiproliferative SRB assay, LoVo; format: cell-based, human; conditions: for IC50: Homo sapiens, LoVo, 72 h, read-out: IC50 LoVo; for SI LoVo: SI = IC50 BALB/3T3 / IC50 LoVo
Text: as §1, §2, §3
(§6) After 72 h of incubation with tested compounds the cells were fixed in situ by gently adding of 50 µL per well of cold 50% trichloroacetic acid TCA (Avantor Performance Materials, City, Poland) and were incubated at 4 °C for 1 h. Then the wells were washed four times with water and air-dried. Next, 50 µL of 0.2% solution of sulphorodamine B (Sigma Aldrich) in 1% acetic acid (Avantor Performance Materials) were added to each well and plates were incubated at room temperature for 0.5 h. After incubation time, unbound dye was removed by washing plates four times with 1% acetic acid, whereas the stain bound to cells was solubilized with 150 µL of 10 mM Tris base (Sigma Aldrich). Absorbance of each solution was read at Synergy H4 photometer (BioTek Instruments, Winooski, VT, USA) at 540 nm wavelength.
as §5

LoVo/dx = assay: Antiproliferative SRB assay, LoVo/dx; format: cell-based, human; conditions: for IC50: Homo sapiens, LoVo/DX, 72 h, read-out: IC50 LoVo/dx; for IR LoVo/DX: IR = IC50 LoVo/dx / IC50 LoVo; for SI LoVo/DX: SI = IC50 BALB/3T3 / IC50 LoVo/dx
Text: as §1, §2, §3, §6, §5

[4] = test system: HL-60, HL-60/vinc, LoVo, LoVo/dx; assay: Antiproliferative assays, all four cancer cell lines (range given); format: cell-based; conditions: Homo sapiens; range over HL-60, HL-60/vinc, LoVo, LoVo/dx; read-out: IC50 (range over the cancer cell lines)
Text: as §1, §2, §3, §6
Proliferation inhibition of leukemia cells by tested compounds was measured by means of MTT assay. […]

[5] = HL-60, 72 h, MTT, mean ± SD, NA: not active in concentrations used (up to 100 µg/mL)

## CC[C@H](C(=O)NCc1cccc(Br)c1)C1CC[C@H](C)C([C@@H](C)[C@H](O)[C@H](C)C(=O)[C@H](CC)C2O[C@]3(C=C[C@@H](O)C4(CC[C@@](C)(C5CC[C@](O)(CC)[C@H](C)O5)O4)O3)[C@H](C)C[C@@H]2C)O1 (some centres unmarked) [Br-m]
HL-60; [5]
  IC50: 3.38 ± 1.09 µM
HL-60
  SI HL-60: 2.74
[1]
  MIC: > 100 µg/mL
[2]
  MIC: > 100 µg/mL
[3]
  MIC: > 100 µg/mL
HL-60/vinc
  IC50: 7.08 ± 1.73 µM
  IR HL-60/vinc: 2.09
  SI HL-60/vinc: 1.31
LoVo; SRB, mean ± SD
  IC50: 5.23 ± 0.22 µM
LoVo
  SI LoVo: 1.77
LoVo/dx
  IC50: 3.39 ± 0.15 µM
  IR LoVo/DX: 0.65
  SI LoVo/DX: 2.73

## CC[C@H](C(=O)NCc1ccc(Br)cc1)C1CC[C@H](C)C([C@@H](C)[C@H](O)[C@H](C)C(=O)[C@H](CC)C2O[C@]3(C=C[C@@H](O)C4(CC[C@@](C)(C5CC[C@](O)(CC)[C@H](C)O5)O4)O3)[C@H](C)C[C@@H]2C)O1 (some centres unmarked) [Br-p]
HL-60; [5]
  IC50: 20.7 ± 4.66 µM
HL-60
  SI HL-60: 0.41
[2]
  MIC: 50 µg/mL (≈ 54.4 µM)
[3]
  MIC: 50 µg/mL (≈ 54.4 µM)
HL-60/vinc
  IC50: 33.5 ± 10.9 µM
  IR HL-60/vinc: 1.62
  SI HL-60/vinc: 0.25
LoVo; SRB, mean ± SD
  IC50: 16.3 ± 0.96 µM
LoVo
  SI LoVo: 0.52
LoVo/dx
  IC50: 4.97 ± 2.76 µM
  IR LoVo/DX: 0.30
  SI LoVo/DX: 1.69

## CC[C@H](C(=O)NCc1cccc(Cl)c1)C1CC[C@H](C)C([C@@H](C)[C@H](O)[C@H](C)C(=O)[C@H](CC)C2O[C@]3(C=C[C@@H](O)C4(CC[C@@](C)(C5CC[C@](O)(CC)[C@H](C)O5)O4)O3)[C@H](C)C[C@@H]2C)O1 (some centres unmarked) [Cl-m]
HL-60; [5]
  IC50: 3.83 ± 0.09 µM
HL-60
  SI HL-60: 4.52
[2]
  MIC: > 100 µg/mL
[3]
  MIC: 100 µg/mL (≈ 114 µM)
HL-60/vinc
  IC50: 6.59 ± 1.22 µM
  IR HL-60/vinc: 1.72
  SI HL-60/vinc: 2.63
LoVo; SRB, mean ± SD
  IC50: 11.6 ± 5.12 µM
LoVo
  SI LoVo: 1.49
LoVo/dx
  IC50: 2.96 ± 0.99 µM
  IR LoVo/DX: 0.25
  SI LoVo/DX: 5.86

## CC[C@H](C(=O)NCc1ccccc1Cl)C1CC[C@H](C)C([C@@H](C)[C@H](O)[C@H](C)C(=O)[C@H](CC)C2O[C@]3(C=C[C@@H](O)C4(CC[C@@](C)(C5CC[C@](O)(CC)[C@H](C)O5)O4)O3)[C@H](C)C[C@@H]2C)O1 (some centres unmarked) [Cl-o]
HL-60; [5]
  IC50: 3.18 ± 0.69 µM
HL-60
  SI HL-60: 1.89
[2]
  MIC: 50 µg/mL (≈ 57.2 µM)
[3]
  MIC: 100 µg/mL (≈ 114 µM)
HL-60/vinc
  IC50: 3.99 ± 1.47 µM
  IR HL-60/vinc: 1.25
  SI HL-60/vinc: 1.50
LoVo; SRB, mean ± SD
  IC50: 3.85 ± 0.05 µM
LoVo
  SI LoVo: 1.56
[4]
  IC50: 2.32 to 6.84 µM
LoVo/dx
  IC50: 2.91 ± 0.22 µM
  IR LoVo/DX: 0.76
  SI LoVo/DX: 2.06

## CC[C@H](C(=O)NCc1ccc(Cl)cc1)C1CC[C@H](C)C([C@@H](C)[C@H](O)[C@H](C)C(=O)[C@H](CC)C2O[C@]3(C=C[C@@H](O)C4(CC[C@@](C)(C5CC[C@](O)(CC)[C@H](C)O5)O4)O3)[C@H](C)C[C@@H]2C)O1 (some centres unmarked) [Cl-p, p-chlorobenzyl amide of salinomycin]
HL-60; [5]
  IC50: 36.2 ± 3.03 µM
HL-60
  SI HL-60: 0.21
[2]
  MIC: 100 µg/mL (≈ 114 µM)
[3]
  MIC: 100 µg/mL (≈ 114 µM)
HL-60/vinc
  IC50: 46.8 ± 12.5 µM
  IR HL-60/vinc: 1.29
  SI HL-60/vinc: 0.16
LoVo; SRB, mean ± SD
  IC50: 19.3 ± 4.03 µM
LoVo
  SI LoVo: 0.40
LoVo/dx
  IC50: 16.6 ± 4.81 µM
  IR LoVo/DX: 0.86
  SI LoVo/DX: 0.46

## CCC(C(=O)NCc1cccc(F)c1)C1CCC(C)C(C(C)C(O)C(C)C(=O)C(CC)C2OC3(C=CC(O)C4(CCC(C)(C5CCC(O)(CC)C(C)O5)O4)O3)C(C)CC2C)O1 (centres unmarked) [F-m]
HL-60; HL-60, 72 h
  IC50: 65 ± 35.3 µM
HL-60
  SI HL-60: 0.10
[2]
  MIC: > 100 µg/mL
[3]
  MIC: 100 µg/mL (≈ 117 µM)
LoVo
  IC50: 13.5 ± 0.28 µM
  SI LoVo: 0.48
LoVo/dx
  IC50: 3.91 ± 2.1 µM
  IR LoVo/DX: 0.29
  SI LoVo/DX: 1.65

## NNC(=O)c1ccncc1 [Isoniazid, isoniazid, reference compound]
[1]
  MIC: 3.1 to 6.25 µg/mL (≈ 22.6 to 45.6 µM)
[2]; wild strain spec. 192, Youmans' medium, 37 °C, tested 3.1-100 µg/mL
  MIC: < 3.1 µg/mL
[3]; Youmans' medium, 37 °C, tested 3.1-100 µg/mL
  MIC: < 3.1 µg/mL

## CC[C@H](C(=O)NCc1cccc([N+](=O)[O-])c1)C1CC[C@H](C)C([C@@H](C)[C@H](O)[C@H](C)C(=O)[C@H](CC)C2O[C@]3(C=C[C@@H](O)C4(CC[C@@](C)(C5CC[C@](O)(CC)[C@H](C)O5)O4)O3)[C@H](C)C[C@@H]2C)O1 (some centres unmarked) [NO2-m]
HL-60; [5]
  IC50: 8.78 ± 1.73 µM
HL-60
  SI HL-60: 2.84
[2]
  MIC: 100 µg/mL (≈ 113 µM)
[3]
  MIC: 100 µg/mL (≈ 113 µM)
HL-60/vinc
  IC50: 24.6 ± 8 µM
  IR HL-60/vinc: 2.80
  SI HL-60/vinc: 1.01
LoVo; SRB, mean ± SD
  IC50: 16.1 ± 1.61 µM
LoVo
  SI LoVo: 1.54
LoVo/dx
  IC50: 3.26 ± 0.84 µM
  IR LoVo/DX: 0.20
  SI LoVo/DX: 7.64
